Here are results for 2 molecules from US12679878B2, “CRF2 receptor agonists and their use in therapy” (SANOFI, priority 2020, dated 2026).

This experiment addresses T1, human CRF2α receptor (Homo sapiens, UniProt Q13324).
T1 construct: expressed in transfected cells; host or cells: TeloHEAC
T1 sequence (Q13324 1-411): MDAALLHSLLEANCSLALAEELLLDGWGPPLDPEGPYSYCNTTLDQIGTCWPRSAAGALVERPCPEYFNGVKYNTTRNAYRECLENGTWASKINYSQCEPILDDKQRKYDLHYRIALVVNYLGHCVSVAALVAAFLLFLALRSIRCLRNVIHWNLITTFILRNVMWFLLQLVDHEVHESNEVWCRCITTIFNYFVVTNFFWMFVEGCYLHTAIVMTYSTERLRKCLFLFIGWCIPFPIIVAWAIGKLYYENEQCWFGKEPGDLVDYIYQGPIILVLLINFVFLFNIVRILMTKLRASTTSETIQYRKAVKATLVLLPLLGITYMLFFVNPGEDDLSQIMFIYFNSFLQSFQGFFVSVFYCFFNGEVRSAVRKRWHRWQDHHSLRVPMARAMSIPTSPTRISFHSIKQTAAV
Nature of the experiment: cAMP agonism at human CRF2 α receptor in TeloHEAC cells (Example 7). The experiment is classed as cell-based. Particulars: cAMP HTRF, TeloHEAC cells stably expressing human CRF2 α, 0% HSA; read-out: EC50 [nM], 0% HSA. In short, it runs like this: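 Cryopreserved cells are thawed, washed and resuspended in IBMX-containing (2 mM) HEPES-buffered HBSS with or without 0.1% HSA. Compound incubation runs 30 min at room temperature with 2000 cells per well, then cAMP is measured by time-resolved FRET. Potency is expressed as EC50, efficacy relative to urocortin 2 at 1000 nM.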

A word on the EC50: it is the midpoint of the concentration-response curve.

SMILES strings stand for the structures. Starred links: 1 amine or outer side, 2 acyl side, 3 side chain; linkers in the order of their positions; H or OH if unused. Non-standard residues stand in square brackets, D forms with d. Residues, ends and D or L forms follow the SMILES beside them. Groups on a side chain read outwards from the residue. *: point of attachment. C18 diacid = O=C(O)CCCCCCCCCCCCCCCCC(=O)*; γGlu = O=C(O)[C@H](CCC(=O)[*:2])N[*:1]; AEEA = NCCOCCOCC(=O)O; Aib = CC(C)(N)C(=O)O

Consider `CC[C@H](C)[C@H](N)C(=O)N[C@H](C(=O)N[C@@H](CC(C)C)C(=O)N[C@@H](CO)C(=O)N[C@@H](CC(C)C)C(=O)N[C@@H](CC(=O)O)C(=O)N[C@H](C(=O)N1CCC[C@H]1C(=O)N[C@H](C(=O)N[C@@H](CCCCN)C(=O)N[C@@H](CC(C)C)C(=O)N[C@@H](CCCCNC(=O)COCCOCCNC(=O)COCCOCCNC(=O)CC[C@H](NC(=O)CCCCCCCCCCCCCCCCC(=O)O)C(=O)O)C(=O)N[C@@H](CCC(N)=O)C(=O)N[C@H](C(=O)N[C@@H](CC(C)C)C(=O)N[C@@H](CC(C)C)C(=O)N[C@@H](CCC(=O)O)C(=O)N[C@@H](CCC(N)=O)C(=O)N[C@@H](CCC(=O)O)C(=O)N[C@@H](CCCNC(=N)N)C(=O)N[C@@H](CCC(N)=O)C(=O)N[C@@H](CCCCN)C(=O)N[C@@H](CCCCN)C(=O)N[C@@H](CCC(N)=O)C(=O)N[C@@H](CCCNC(=N)N)C(=O)N[C@@H](CCC(=O)O)C(=O)N[C@@H](CCC(N)=O)C(=O)N[C@@H](C)C(=O)N[C@@H](CCC(=O)O)C(=O)N[C@H](C(=O)N[C@@H](CC(N)=O)C(=O)NC(C)(C)C(=O)N[C@@H](CCC(N)=O)C(=O)N[C@H](C(=O)N[C@@H](CC(C)C)C(=O)N[C@@H](CCC(=O)O)C(=O)N[C@@H](CCCNC(=N)N)C(=O)N[C@H](C(N)=O)C(C)C)[C@@H](C)CC)[C@@H](C)O)[C@@H](C)CC)[C@@H](C)CC)C(C)C)C(C)C` [compound 74] (H-IVLSLDVPIKLK([AEEA-AEEA-γGlu-C18 diacid])QILLEQERQKKQREQAETN[Aib]QILERV-NH2), for which the EC50 amounted to 2.12 nM.
Then `CC[C@H](C)[C@H](N)C(=O)N[C@H](C(=O)N[C@@H](CC(C)C)C(=O)N[C@@H](CO)C(=O)N[C@@H](CC(C)C)C(=O)N[C@@H](CC(=O)O)C(=O)N[C@H](C(=O)N1CCC[C@H]1C(=O)N[C@H](C(=O)NCC(=O)N[C@@H](CC(C)C)C(=O)N[C@@H](CCCCNC(=O)COCCOCCNC(=O)COCCOCCNC(=O)CC[C@H](NC(=O)CCCCCCCCCCCCCCCCC(=O)O)C(=O)O)C(=O)N[C@@H](CCC(N)=O)C(=O)N[C@H](C(=O)N[C@@H](CC(C)C)C(=O)N[C@@H](CC(C)C)C(=O)N[C@@H](CCC(=O)O)C(=O)N[C@@H](CCC(N)=O)C(=O)N[C@@H](CCC(=O)O)C(=O)N[C@@H](CCCNC(=N)N)C(=O)N[C@@H](CCC(N)=O)C(=O)N[C@@H](CCCCN)C(=O)N[C@@H](CCCCN)C(=O)N[C@@H](CCC(N)=O)C(=O)N[C@@H](CCCNC(=N)N)C(=O)N[C@@H](CCC(N)=O)C(=O)N[C@@H](CCC(N)=O)C(=O)N[C@@H](C)C(=O)N[C@@H](CCC(=O)O)C(=O)N[C@H](C(=O)N[C@@H](CC(N)=O)C(=O)NC(C)(C)C(=O)N[C@@H](CCC(N)=O)C(=O)N[C@H](C(=O)N[C@@H](CC(C)C)C(=O)N[C@@H](C)C(=O)N[C@@H](CCC(N)=O)C(=O)N[C@H](C(N)=O)C(C)C)[C@@H](C)CC)[C@@H](C)O)[C@@H](C)CC)[C@@H](C)CC)C(C)C)C(C)C` [compound 76] (H-IVLSLDVPIGLK([AEEA-AEEA-γGlu-C18 diacid])QILLEQERQKKQRQQAETN[Aib]QILAQV-NH2), with 13.4 nM.
